Results: patent publication US10329542B2, “HBV RNAse H purification and enzyme inhibitors” (Saint Louis University, priority 2012, dated 2019)
Read-outs that look alike come from different tables or passages of the source.

Columns and labels:
[1] = target: T1, HBV genotype D RNAseH (HRHPL) (Hepatitis B virus genotype D subtype ayw, UniProt P03156, INS679M); test: Oligonucleotide-directed RNAseH cleavage assay, HBV genotype D; format: biochemical; settings: class by concentration giving inhibition (10, 20, 60 μM)
T1 construct: HRHPL contains HBV genotype D (Genbank V01460) polymerase residues 684-845; made in house; host or cells: E. coli BL21 codon+
Method: (§1) For the oligonucleotide-directed RNAseH cleavage assay (Gong et al., 2001), 6 μl protein extract (typical protein concentration 2.8 mg/ml) was mixed with 0.5 μg internally ^32P-labeled DRF+ RNA (nucleotides 2401-2605 of the duck HBV genome plus 60 nucleotides of flanking sequences from pBluescript) and 3 μg oligonucleotide D2507- or its corresponding negative control D2526+ on ice in 20 μl under the conditions in Table 1. Some reactions in FIG. 5 employed oligonucleotide D2543M-Sal or its D2453+ negative control as indicated. The reactions were incubated at 42° C. for 90 min. and terminated by addition of Laemmli protein loading buffer and boiling. The samples were resolved by 12% SDS-PAGE, the gels were stained with Coomassie blue to monitor protein loading, and labeled RNA was detected by autoradiography. Candidate inhibitors were dissolved in DMSO and added at the indicated concentrations during assembly of the reactions. Control reactions lacking the compounds contained DMSO as a vehicle control. The RNAseH autoradiograms were scanned and quantified with ImageJ.
(§2) Oligonucleotide-directed RNAseH cleavage assays (Gong et al., 2001) were performed as described (Tavis et al., 2013). Briefly, HBV RNAseH extracts were mixed with a 264 nt-long internally ^32P-labeled RNA plus an excess of a complementary DNA oligonucleotide or its inverse-complement as a negative control in a final concentration of 65 mM Tris pH 8.0, 190 mM NaCl, 5 mM MgCl2, 5 mM dTT, 0.05% NP40, and 6% glycerol. βTJ was dissolved in DMSO and added at the indicated concentrations; the final concentration of DMSO in all reactions was 1%. The reactions were incubated at 42° C. for 90 min. and terminated by addition of Laemmli protein electrophoresis buffer. The samples were resolved by SDS-PAGE, labeled RNA was detected by autoradiography, the autoradiograms were scanned, and the RNA cleavage products were quantified with ImageJ (National Institutes of Health). IC50 values were calculated by non-linear regression using GraphPad Prism (GraphPad Software, Inc.).

HBV genotype C RNAseH = test: Oligonucleotide-directed RNAseH cleavage assay, HBV genotype C; format: biochemical, Hepatitis B virus; settings: class by concentration giving inhibition (10, 20, 60 μM)
Method: as §1, with “ImageJ. The oligonucleotides were: D2526+([…]; SEQ ID NO:8), D2507-([…]; SEQ ID NO:9), D2453+([…]; SEQ ID NO:10), and D2543M-Sal ([…]; SEQ ID NO:11).” for “ImageJ.”
Incremental improvements were developed in extraction of the HBV RNAseH from the bacterial cell pellets since the data were generated for Examples 1 and 2. Key among these was shifting from using a cup sonicator to a probe sonicator and reducing the duration of the sonication period from 3×60 second bursts to 3×20 second bursts. When the […] genotype C clone that had inconsistent activity under the old extraction conditions (FIG. 6C) was isolated under these conditions, it became consistently and robustly active (FIG. 16).

human RNAseH1 = target: T2, human RNAseH1 (Homo sapiens, UniProt O60930); test: Oligonucleotide-directed RNAseH assay, recombinant human RNAseH1; format: biochemical; settings: class by concentration giving inhibition (10, 20, 60 μM)
T2 construct: hexahistidine (N); made in house; host or cells: E. coli BL21 codon+
T2 sequence (O60930 1-286): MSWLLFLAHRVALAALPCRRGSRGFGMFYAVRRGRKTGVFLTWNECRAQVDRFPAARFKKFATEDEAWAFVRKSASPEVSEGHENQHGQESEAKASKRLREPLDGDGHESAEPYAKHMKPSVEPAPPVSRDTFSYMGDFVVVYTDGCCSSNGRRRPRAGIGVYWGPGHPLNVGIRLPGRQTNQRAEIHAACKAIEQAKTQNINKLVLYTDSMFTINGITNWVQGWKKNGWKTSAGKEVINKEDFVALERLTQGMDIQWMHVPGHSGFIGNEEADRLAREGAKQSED
Method: as §1, with “ImageJ. The oligonucleotides were: D2526+([…]; SEQ ID NO:8), D2507-([…]; SEQ ID NO:9), D2453+([…]; SEQ ID NO:10), and D2543M-Sal ([…]; SEQ ID NO:11).” for “ImageJ.”
Therefore, the inventors cloned the human RNAseH1 with an N-terminal hexahistidine tag, expressed it in E. coli, and purified the protein by nickel affinity chromatography. […] This enzyme was active in the oligonucleotide-directed and fluorescent RNAseH assays (FIG. 10B and data not shown). To determine how inhibition of human RNAseH1 compared to inhibition of the HBV RNAseH, the inventor titrated the RNAaseH1 enzyme to yield similar levels of activity as the HBV enzyme, and then the inventor directly compared the ability of compounds #8-12 to inhibit human RNAseH1 and HRHPL at 10 μM. […] Therefore, it is possible to inhibit the HBV RNAseH without inhibiting human RNAseH1.
as §2

HBV [2] = test: HBV genomic replication assays (Table 2); format: cell-based, Hepatitis B virus; settings: class by active concentration
Method: Huh7 cells were maintained in Dulbecco's modified Eagle's medium with 10% fetal bovine serum at 37° C. in 5% CO2. Cells were seeded into 60 mm dishes and transfected at 70% confluency with 2.6 μg of plasmids using TransIT-LT1 (Mirus, Inc.). Test compounds were added the morning following transfection at 10 or 50 μM, and fresh medium containing the compounds was provided every 1-2 days. Four or five days post-transfection HBV cores were isolated by lysis of the cells in 10 mM Tris pH 7.5, 1 mM EDTA, 0.25% NP40, 50 mM NaCl, and 8% sucrose followed by sedimentation through a 30% sucrose cushion as described (Travis, et al., 1998). Viral DNAs were isolated from cytoplasmic core particle preparations by proteinase K digestion followed by phenol/chloroform extraction as described (Gong et al., 2001). Duplicate aliquots of the nucleic acids were treated with 2 U E. coli DNAse-free RNAseH (Invitrogen) at 37° C. for 30 min. or were mock treated. The nucleic acid samples were resolved by electrophoresis on 1.2% agarose gels and detected by Southern blotting with ^32P-labeled HBV DNA as a probe. […]

rat hepatocytes = settings: cited from earlier work
HBV [3] = test: Quantitative PCR screen of HBV plus-polarity DNA accumulation; format: cell-based, Hepatitis B virus; settings: 60, 20, or 6.7 μM; DNA isolated day 3
Method: This assay was employed to screen 7 compounds for their ability to suppress HBV replication (FIG. 17). […] Fresh medium containing compound was provided on days 1 and 2, and capsid-associated HBV DNAs were isolated on day 3. HBV plus-strand DNAs were measured using the cross-gap TaqMan PCR assay.
Plus-polarity preferential quantitative TaqMan PCR for the HBV DNA was conducted employing forward primer […] […] PCR was conducted on purified HBV capsid-derived nucleic acids for 40 cycles of 95° C. for 15 sec. and 65° C. for 1 min. employing the TaqMan universal PCR master mix (Applied Biosystems). Results were standardized against serial dilutions of cloned HBV DNA. The EC50 was estimated by linear regression of the real-time PCR data.

HIV-1 RNAseH = HIV-1 RNAseH (Human immunodeficiency virus type 1 group M subtype B, UniProt P04585); settings: read-out: IC50 against the HIV RNAseH; cited from earlier work
[4] = rat hepatocytes, Nakagawa and Tayama, 1998

| Compound | Activity vs. HBV Biochemical vs. gtD [1] | Activity vs. HBV Biochemical vs. gtC (HBV genotype C RNAseH) | Activity vs. human RNAseH1 (human RNAseH1) | also measured |
| --- | --- | --- | --- | --- |
| Cc1cc(C)c(C#N)c(=O)[nH]1 [Compound 20] | − (− no inhibition at 60 μM) | − (− no inhibition at 60 μM) |  |  |
| O=c1ccc2ccccc2n1O [Compound 43] | − (− no inhibition at 60 μM) | + (+ inhibition at 60 μM) | − (− no inhibition at 60 μM) |  |
| O=C1c2cccc3cccc(c23)C(=O)N1O [Compound 45] | − (− no inhibition at 60 μM) | + (+ inhibition at 60 μM) | − (− no inhibition at 60 μM) | Activity vs. HBV Genomic Replication (HBV [2]): − (− no activity at 60 μM) |
| CC(C)c1cccc(O)c(=O)c1 [Compound 47, beta-thujaplicin] | +++ (+++ inhibition at 10 μM) | − (− no inhibition at 60 μM) | − (− no inhibition at 60 μM) | Mitochondrial toxicity (rat hepatocytes; [4]): mitochondrial toxicity has been reported; Activity vs. HBV Genomic Replication (HBV [2]): − (− no activity at 60 μM); Suppression of HBV plus-polarity DNA accumulation (HBV [3]): did not suppress HBV plus-polarity DNA accumulation |
| CC(C)c1ccc(O)c(=O)cc1 [Compound 48] |  |  |  | Suppression of HBV plus-polarity DNA accumulation (HBV [3]): did not suppress HBV plus-polarity DNA accumulation |
| O=c1cccccc1O [Compound 53, Tropolone] | ++ (++ inhibition at 20 μM) |  | − (− no inhibition at 60 μM) | Mitochondrial toxicity (rat hepatocytes): mitochondrial toxicity has been reported; Activity vs. HBV Genomic Replication (HBV [2]): − (− no activity at 60 μM); Suppression of HBV plus-polarity DNA accumulation (HBV [3]): inhibited accumulation of HBV plus-polarity DNA to lesser extents |
| CC(C)n1cc(C(=O)O)c(=O)c2ccccc21 [Compound 64] | + (+ inhibition at 60 μM) | − (− no inhibition at 60 μM) |  |  |
| CCn1cc(C(=O)O)c(=O)c2cc(Cc3ccccc3)c(OCCOC)cc21 [Compound 69] | ++ (++ inhibition at 20 μM) | + (+ inhibition at 60 μM) |  |  |
| CCn1cc(C(=O)O)c(=O)c2cc(F)c(N3CCNCC3)nc21 [Compound 71, Enoxacin, reference compound] | − (− no inhibition at 60 μM) | − (− no inhibition at 60 μM) |  |  |
| Cn1c(N2CCCCS2(=O)=O)nc(C(=O)NCc2ccc(F)cc2)c(O)c1=O [Compound 72, reference compound] | ++ (++ inhibition at 20 μM) | + (+ inhibition at 60 μM) |  |  |
| C[C@@H]1CCO[C@H]2Cn3cc(C(=O)NCc4ccc(F)cc4F)c(=O)c(O)c3C(=O)N12 [Compound 73, Dolutegravir, reference compound] | + (+ inhibition at 60 μM) | − (− no inhibition at 60 μM) |  |  |
| O=c1cccccc1 [tropone, reference compound] |  |  |  | Mitochondrial toxicity (rat hepatocytes; [4]): mitochondrial toxicity has been reported |
| CC(C)c1ccccc(=O)c1O [α-thuaplicin, reference compound] |  |  |  | IC50 (HIV-1 RNAseH): 50 µM |
| Manicol [Compound 56] | +++ (+++ inhibition at 10 μM) | +++ (+++ inhibition at 10 μM) | − (− no inhibition at 60 μM) | Activity vs. HBV Genomic Replication (HBV [2]): + (+, activity detectable at >10 μM); Suppression of HBV plus-polarity DNA accumulation (HBV [3]): inhibited accumulation of HBV plus-polarity DNA to lesser extents; IC50 (HIV-1 RNAseH): 60 µM |
